Measurements reported in patent US20260224577A1, “METHODS OF TREATING HEART FAILURE WITH VIBEGRON” (SUMITOMO PHARMA CO., LTD., priority 2021, published 2026).

What was measured:
[1] = test system: mice with induced myocardial infarction; assay: Post-MI chronic heart failure in mice, invasive hemodynamics with isoproterenol; format: in vivo, mouse; settings: 4 weeks of treatment
Description: (§1) Myocardial infarction was induced in 10-12 week C57B/6 wild-type mice and after 2 weeks echo cardiograms were used to assess the MI severity in each mouse. Mice were randomized for treatment based on similarity and severity of the induced infarct. The mice were started with either vibegron or vehicle (1-3 doses) administered by continuous infusion using 2 week minipumps (Azlet Corp.) that were filled with the appropriate dose and implanted subcutaneously on the back of each animal in the region of the scapula. The minipumps were replaced with new minipumps in the same location at the 2 week time point and dosed for 4 weeks in total. Cardiac function was assessed by echocardiography (Echo) at 0, 2, 4, and 6 weeks. Some mice were subjected to terminal catheterization to measure hemodynamic pressures and adrenergic responsiveness. At the end of the 4 week treatment period (i.e., 6 weeks after MI was induced), cardiac function was measured, mice were sacrificed for histology of the heart, and terminal blood was collected to confirm the serum concentration of vibegron.
(§2) • 1. Day 0 (after 1-2 weeks acclimation)—pre-surgery Echo • 2. Perform LAD Ligation (MI) or Sham procedure • 3. Day 14—Echo and randomly assign groups • 4. Day 14—begin administration of vehicle and drug for 4 weeks • 5. Day 28—Echo (operator blinded to groups)—change pumps for another 2 week dosing • 6. Day 42—Echo (operator blinded to groups) • 7. Day 42—Some were used for hemodynamics and ISO dose response and all animals sacrificed. Some were used for histology and some for RNA/Protein analysis. Blood was also collected at the time of sacrifice to determine serum concentrations.
Invasive Measurements: The hemodynamic measurements occurred at the end of the study as described in the protocols above. […] Hemodynamic measurements were collected and analyzed for cardiac function.
The maximum (dp/dt max) rate of pressure change during contraction and minimum (dp/dt min) rate of pressure change during relaxation of the left ventricle were measured with increasing doses of isoproterenol in combination with vibegron. […]

[2] = test system: β3-AR over β2-AR and β1-AR; settings: cell based in vitro assays; cited from earlier work
[3] = Plasma titer after 4 weeks of treatment in post-MI mice; format: in vivo, mouse; settings: after 4 weeks of treatment (week 6), FIG. 6
Description: as §1
• 1. Day 0 (after 1-2 weeks acclimation)—pre-surgery Echo • 2. Perform LAD Ligation (MI) or Sham procedure • 3. Day 14—Echo and randomly assign groups • 4. Day 14—begin administration of vehicle and drug for 4 weeks • 5. Day 28—Echo (operator blinded to groups)—change pumps for another 2 week dosing • 6. […]

[4] = test system: mice with induced myocardial infarction; assay: Post-MI chronic heart failure in mice, heart histology (Mason's trichrome); format: in vivo, mouse; settings: for Average % Infarcted Myocardium / Average Left Ventricle Lumen Area: Week 6
Description: as §1, §2
At the end of the study period, blood samples were processed for subsequent analysis of compound and decided biomarkers. At the end of the study, the heart was either preserved in formalin (for section, and staining) or snap frozen (for isolation of whole heart RNA, DNA and protein) as described above.
Histologies were obtained by sectioning the mouse hearts vertically in such a way that all four chambers were visible upon staining. The area of the left ventricle cavity was measured by staining with Mason's trichrome stain. The darker color indicates healthy myocardium and the lighter color indicates connective tissue, which is the largest component of infarcted myocardium.

## O=C(Nc1ccc(C[C@@H]2CC[C@H]([C@H](O)c3ccccc3)N2)cc1)[C@@H]1CCc2nccc(=O)n21 [Vibegron, (6S)—N-[4-[[(2S,5R)-5-[(R)-hydroxy(phenyl)methyl]pyrrolidin-2-yl]methyl]phenyl]-4-oxo-7,8-dihydro-6H-pyrrolo[1,2-a]pyrimidine-6-carboxamide]
[1]; increasing doses of isoproterenol, FIG. 4A
  Maximum rate of pressure change (dp/dt max) during left ventricle contraction: increased
[1]; increasing doses of isoproterenol, FIG. 4B
  Minimum rate of pressure change (dp/dt min) during left ventricle relaxation: decreased
[1]; versus mice not receiving vibegron, FIG. 4C
  Change in heart rate with increasing doses of isoproterenol: higher increase in heart rate
[2]
  Selectivity for activation of β3-AR over β2-AR and β1-AR: > 9,000 fold
[3]
  Vibegron plasma titer: consistent with the dosing
[4]; MI mice, 4 weeks of treatment, versus vehicle, FIGS. 5A-5F
  Amount of healthy myocardium after infarction (trichrome stain): increases the amount of healthy myocardium after infarction
[4]; MI mice, high dose (10 mg/kg)
  Average % Infarcted Myocardium: 7.68%
  Average Left Ventricle Lumen Area: 75,061 AU
[4]; MI mice, low dose (1 mg/kg)
  Average % Infarcted Myocardium: 21.79%
  Average Left Ventricle Lumen Area: 170,789 AU
[4]; MI mice, medium dose (3 mg/kg)
  Average % Infarcted Myocardium: 18.85%
  Average Left Ventricle Lumen Area: 72,474 AU
[4]; sham mice, high dose
  Adverse effects in healthy hearts (LV lumen area, infarcted myocardium): no adverse effects
[4]; sham mice, high dose (10 mg/kg)
  Average Left Ventricle Lumen Area: 46,167 AU
